Measured values published in patent publication US7109215B2, “Compounds possessing neuronal activity” (Vertex Pharmaceuticals Incorporated, priority 1997, dated 2006).
pKi: −log10 of the molar value. Marks after values point to notes of the source that are not given here.

Assays:
[1] = tested on: pheochromocytoma PC12 cells; assay: Neurite outgrowth quantitation in PC12 cell system; type: cell-based, rat; details: for Neurite outgrowth, visual scale of 0 to 4: 1–5 ng/ml NGF, 72 hours
Experimental: In order to directly determine the neurotrophic activity of compounds described in this invention, the neurite outgrowth assay was carried out with pheochromocytoma PC12 cells as described by Lyons et al. (1994).
PC12 cells were maintained at 37° C. and 5% CO2 in Dulbecco's modified Eagle's medium (DMEM) supplemented with 10% heat-inactivated horse serum, 5% heat-inactivated fetal bovine serum (FBS), and 1% glutamate.
The cells were then plated at […] in 96 well plates coated with […] rat tail collagen and allowed to attach overnight. The medium was then replaced with DMEM, 2% heat-inactivated horse serum, 1% glutamate, 1–5 ng/ml of NGF (Sigma) and varying concentrations of the compounds of this invention (0.01 nM–10000 nM). The background control culture was administered with […] of NGF alone without compound. Positive control cultures were administered with high concentration of NGF (50 ng/ml). The cells were then incubated at 37° C. at 5% CO2 for 72 hours, fixed with 3% formaldehyde and nerve outgrowth was determined visually on a scale of 0 to 4.

HL60/Vinc cells = assay: MDR sensitization (reversal) assay, doxorubicin, XTT viability; type: cell-based, human; details: IC50 doxorubicin alone / IC50 doxorubicin plus compound
Experimental: We carried out multidrug resistance reversal (MDR) assays using L1210vMDRC.06 or HL60/Vinc cell lines. L1210vMDRC.06 are L1210 mouse leukemia cells transduced with the pHaMDR1/A retrovirus carrying a MDR1 cDNA, as described by Pastan et al., Proc. Natl. Acad. Sci. USA, 85, pp. 4486–4490 (1988). The L1210vMDRC.06 multidrug resistant line is a cell line that has been drug-selected by culturing transfected cells in 0.06 μg/ml colchicine. The HL60/Vinc human promyleocytic leukemia cell line is a multidrug resistant cell line derived from HL60 drug-sensitive parental cells by selection in increasing concentrations of vincristine.
Assays using HL60/Vinc cells were performed by plating cells in 96 well microtiter plates at a concentration of 4×10^4 cells/well. The cells were then exposed to various concentrations of doxorubicin (9 nM to 6.7 μM) in the presence or absence of various compounds of this invention at various concentrations (0.5, 1.0, 2.5, 5.0 or 10 μM) as described in U. Germann et al., Anti-Cancer Drugs, 8, pp. 141–155 (1997). After culturing the cells for 3 days, their viability was quantitated using the XTT dye method to assess mitochondrial function (Roehm et al., supra). Results were expressed as a ratio of the IC50 for doxorubicin alone to the IC50 for doxorubicin plus compound. In all assays the intrinsic antiproliferative or cytotoxicity activity of the MDR inhibitors was also determined for HL60/Vinc cells.

FKBP = FKBP (Homo sapiens, UniProt P62942); assay: Rotamase inhibition assay (chymotrypsin-coupled PPIase assay); type: biochemical; details: 15 nM FKBP, 30 μM Suc-Ala-Leu-Pro-Phe-pNA, 15° C.
Experimental: Inhibition of FKBP enzyme activity was determined in the PPIase assay described in S. T. Park et al., J. Biol. Chem., 267, pp. 3316–24 (1992), the disclosure of which is herein incorporated by reference. This is a chymotrypsin-coupled assay in which FKBP catalyzes the cis to trans isomerization of the Leu-Pro bond in the peptide substrate Suc-Ala-Leu-Pro-Phe-pNA. The trans form, but not the cis form, is cleavable by chymotrypsin. The release Phe-pNA was monitored by absorbance at 400 nm. Chymotrypsyn cleavage is very rapid and therefore cis-to-trans isomerization is rate-limiting.
Each reaction mix consisted of 0.1 M Tris buffer, pH 7.8, 15 nM FKBP, 30 μM substrate and 0.5 nM to 10 μM of compound to be tested diluted in Me2SO. The mixture was incubated at 15° C. for 5 minutes and then reaction was initiated by addition of chymotrypsin (100 μg/ml final concentration) and followed spectrophotometrically for 5 minutes. Total reaction volume was 1 ml.

Sequence of FKBP (P62942 whole entry): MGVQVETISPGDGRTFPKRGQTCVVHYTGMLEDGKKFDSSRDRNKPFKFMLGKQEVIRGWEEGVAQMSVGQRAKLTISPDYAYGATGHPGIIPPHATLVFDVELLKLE

| Structure (SMILES) | Neurite outgrowth, visual scale of 0 to 4 ([1]; compound 10 nM) | Neurite outgrowth, visual scale of 0 to 4 ([1]; compound 100 nM) | Neurite outgrowth, visual scale of 0 to 4 ([1]; compound 1000 nM) | MDR Ratio (HL60/Vinc cells; compound 2.5 μM) | pKi (FKBP) | MDR Ratio (HL60/Vinc cells; compound 10 μM) | Neurite outgrowth, visual scale of 0 to 4 ([1]; compound 0.01 nM) | Neurite outgrowth, visual scale of 0 to 4 ([1]; compound 0.1 nM) | Neurite outgrowth, visual scale of 0 to 4 ([1]; compound 1 nM) | Neurite outgrowth, visual scale of 0 to 4 ([1]; compound 10000 nM) | Neurite outgrowth over background control cultures (in words) ([1]; PC12 assay) |
| --- | --- | --- | --- | --- | --- | --- | --- | --- | --- | --- | --- |
| CN(CCc1ccccn1)C(=O)C(Cc1ccccc1)N(C)S(=O)(=O)c1ccc(N)cc1 (stereo in doubt) [Compound 2, (S)-(N-methyl)-2-(methyl-(4-amino-benzenesulfanilamido))-3-phenyl-N-(2-(pyridin-2yl)ethyl) propionamide] | 3*** | 3*** | 4*** | 0.7 | < 4.30 | – | – | – | – | – | – |
| CN(CCc1ccccn1)C(=O)[C@@H]1CCCCN1S(=O)(=O)c1ccc(N)cc1 [Compound 1, N-(4-aminobenzenesulfonamido)-(S)-piperidine-2-carboxylic acid-2-((N-methyl)-2-pyridylethyl) amide] | 3*** | 1*** | 3*** | 0.6 | – | – | – | – | – | – | – |
| CN(CCCc1cccnc1)C(=O)[C@@H]1CCCCN1S(=O)(=O)c1ccc(N)cc1 [Compound 3] | 2*** | 4*** | 4*** | 0.6 | < 4.30 | – | – | – | – | – | – |
| CN(C(=O)[C@H](Cc1ccccc1)N(C)S(=O)(=O)c1ccc(N)cc1)C(CCCc1cccnc1)CCCc1cccnc1 [Compound 4, (S)-(N-methyl)-2-(methyl-(4-amino-benzenesulfanilamido))-3-phenyl-N-(4-(pyridin-3-yl)-1-(3-(pyridin-3-yl)propyl)butyl) propionamide] | 3* | 3* | 4* | 6.2 | < 4.60 | – | – | – | – | – | – |
| CN(C(=O)[C@H](Cc1ccccc1)N(C)S(=O)(=O)c1ccc(Nc2ccc([N+](=O)[O-])cc2[N+](=O)[O-])cc1)C(CCCc1cccnc1)CCCc1cccnc1 [Compound 5] | 2* | 3* | 3* | – | – | 30.4 | – | – | – | – | – |
| CN(C)c1ccc(/N=N\c2ccc(S(=O)(=O)N(C)[C@@H](Cc3ccccc3)C(=O)N(C)C(CCCc3cccnc3)CCCc3cccnc3)cc2)cc1 [Compound 6] | 4* | 2* | 3* | – | – | 17.7 | – | – | – | – | – |
| CN(C)c1cccc2c(S(=O)(=O)N(C)[C@@H](Cc3ccccc3)C(=O)N(C)C(CCCc3cccnc3)CCCc3cccnc3)cccc12 [Compound 7] | 2* | 3* | 3* | – | – | 21.9 | – | – | – | – | – |
| CN(C(=O)[C@H](Cc1ccccc1)N(C)S(=O)(=O)c1ccccc1[N+](=O)[O-])C(CCCc1cccnc1)CCCc1cccnc1 [Compound 8] | 4* | 2* | 3* | 28.5 | < 4.30 | – | – | – | – | – | – |
| CN(C(=O)[C@H](Cc1ccccc1)N(C)S(=O)(=O)CS(C)(=O)=O)C(CCCc1cccnc1)CCCc1cccnc1 [Compound 11] | 1* | 3* | 3* | 1.7 | – | – | – | – | – | – | – |
| CN(C(=O)[C@H](Cc1ccccc1)N(C)S(=O)(=O)Cc1ccccc1)C(CCCc1cccnc1)CCCc1cccnc1 [Compound 12] | 3* | 3* | 4* | 22.6 | – | – | – | – | – | – | – |
| CN(C(=O)[C@H](Cc1ccccc1)N(C)S(=O)(=O)/C=C/c1ccccc1)C(CCCc1cccnc1)CCCc1cccnc1 [Compound 13] | 3* | 3* | 4* | 19.3 | – | – | – | – | – | – | – |
| CN(C(=O)[C@H](Cc1ccccc1)N(C)S(=O)(=O)c1ccc(F)cc1)C(CCCc1cccnc1)CCCc1cccnc1 [Compound 14] | 3* | 2* | 4* | 19.9 | – | – | – | – | – | – | – |
| CC(=O)Nc1ccc(S(=O)(=O)N(C)[C@@H](Cc2ccccc2)C(=O)N(C)C(CCCc2cccnc2)CCCc2cccnc2)cc1 [Compound 15] | 3* | 3* | 3* | 2.4 | – | – | – | – | – | – | – |
| CN(C(=O)[C@H](Cc1ccccc1)N(C)S(=O)(=O)c1ccc(C#N)cc1)C(CCCc1cccnc1)CCCc1cccnc1 [Compound 16] | 3* | 4* | 3* | 19.9 | – | – | – | – | – | – | – |
| COc1ccc(S(=O)(=O)N(C)[C@@H](Cc2ccccc2)C(=O)N(C)C(CCCc2cccnc2)CCCc2cccnc2)cc1OC [Compound 17] | 3* | 3* | 4* | 14.6 | – | – | – | – | – | – | – |
| COc1ccc(S(=O)(=O)N(C)[C@@H](Cc2ccccc2)C(=O)N(C)C(CCCc2cccnc2)CCCc2cccnc2)cc1 [Compound 18] | 3* | 4* | 4* | 10.8 | < 4.30 | – | – | – | – | – | – |
| O=C(OCc1ccccc1)C1CCCCN1 (centres unmarked) [Compound 101] | – | – | – | – | < 4.30 | – | – | – | – | – | – |
| O=C(OC(CCCc1cccnc1)CCCc1cccnc1)C1CCCCN1 (centres unmarked) [Compound 102] | 4** | 2** | 3** | 1.2 | – | – | 3* | 3* | 4* | 4* | – |
| O=C(NCc1cccnc1)C1CCCCN1 (centres unmarked) [Compound 103] | 0 | 0 | 0 | 0.7 | < 4.30 | – | – | – | – | – | Negative results |
| O=C(NCc1ccncc1)C1CCCCN1 (centres unmarked) [Compound 104] | 2* | 4* | 3* | 0.6 | < 4.30 | – | 3* | 3* | 2* | 4* | – |
| CN(CCc1ccccn1)C(=O)C1CCCCN1 (centres unmarked) [Compound 106] | – | 1* | 2* | 1.2 | < 4.30 | – | – | – | – | – | – |
| CNC(Cc1ccccc1)C(=O)N(C)C(CCCc1cccnc1)CCCc1cccnc1 (centres unmarked) [Compound 109] | 3* | 2* | 4* | – | – | – | 3* | 4* | 4* | 3* | – |
